# Test results as given in patent US10189841B2, “Purinones as ubiquitin-specific protease 1 inhibitors” (Forma Therapeutics, Inc., priority 2015, dated 2019).
# Molecular target: USP1 (construct USP1 (I-785, GG670, 671AA)/UAF1 (I-677)-Flag) (Homo sapiens (Human), UniProt O94782, G670A/G671A)
# Test: Ubiquitin-Rhodamine 110 assay for USP1 activity
# Format: biochemical
# Conditions: USP1/UAF1 25 pM, Ub-Rh110 25 nM, 30 min preincubation
# Summary of the method: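 Two formats with the USP1/UAF1 complex and 25 nM ubiquitin-rhodamine 110 in pH 8.0 Tris buffer with calcium, glutathione and detergent. Single-point screening used 10 µM, 100 pM enzyme and 45 min. Inhibition was set against no-enzyme and DMSO wells.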
# Sequence of USP1 (construct USP1 (I-785, GG670, 671AA)/UAF1 (I-677)-Flag) (O94782 whole entry G670A/G671A): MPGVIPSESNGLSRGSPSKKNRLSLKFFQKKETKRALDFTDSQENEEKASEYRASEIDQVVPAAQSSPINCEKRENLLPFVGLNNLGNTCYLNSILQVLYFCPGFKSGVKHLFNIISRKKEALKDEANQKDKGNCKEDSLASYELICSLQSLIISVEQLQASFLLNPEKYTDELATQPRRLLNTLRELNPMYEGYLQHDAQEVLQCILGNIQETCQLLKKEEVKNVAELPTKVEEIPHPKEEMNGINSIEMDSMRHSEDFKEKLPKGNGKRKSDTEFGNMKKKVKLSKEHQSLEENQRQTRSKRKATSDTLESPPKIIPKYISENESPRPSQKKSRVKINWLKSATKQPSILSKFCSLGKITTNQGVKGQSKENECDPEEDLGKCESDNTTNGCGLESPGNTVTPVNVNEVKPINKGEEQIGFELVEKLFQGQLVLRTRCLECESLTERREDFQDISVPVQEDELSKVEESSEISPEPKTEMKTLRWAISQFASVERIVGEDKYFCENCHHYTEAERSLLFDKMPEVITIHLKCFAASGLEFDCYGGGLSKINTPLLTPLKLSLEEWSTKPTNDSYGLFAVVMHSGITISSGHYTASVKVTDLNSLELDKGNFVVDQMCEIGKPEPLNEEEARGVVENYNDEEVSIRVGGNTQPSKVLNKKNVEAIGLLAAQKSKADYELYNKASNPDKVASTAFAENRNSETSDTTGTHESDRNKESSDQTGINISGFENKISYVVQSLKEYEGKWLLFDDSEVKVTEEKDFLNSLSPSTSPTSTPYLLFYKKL
# Sequence of USP1 (construct USP1 (I-785, GG670, 671AA)/UAF1 (I-677)-Flag) (Q8TAF3 whole entry partner): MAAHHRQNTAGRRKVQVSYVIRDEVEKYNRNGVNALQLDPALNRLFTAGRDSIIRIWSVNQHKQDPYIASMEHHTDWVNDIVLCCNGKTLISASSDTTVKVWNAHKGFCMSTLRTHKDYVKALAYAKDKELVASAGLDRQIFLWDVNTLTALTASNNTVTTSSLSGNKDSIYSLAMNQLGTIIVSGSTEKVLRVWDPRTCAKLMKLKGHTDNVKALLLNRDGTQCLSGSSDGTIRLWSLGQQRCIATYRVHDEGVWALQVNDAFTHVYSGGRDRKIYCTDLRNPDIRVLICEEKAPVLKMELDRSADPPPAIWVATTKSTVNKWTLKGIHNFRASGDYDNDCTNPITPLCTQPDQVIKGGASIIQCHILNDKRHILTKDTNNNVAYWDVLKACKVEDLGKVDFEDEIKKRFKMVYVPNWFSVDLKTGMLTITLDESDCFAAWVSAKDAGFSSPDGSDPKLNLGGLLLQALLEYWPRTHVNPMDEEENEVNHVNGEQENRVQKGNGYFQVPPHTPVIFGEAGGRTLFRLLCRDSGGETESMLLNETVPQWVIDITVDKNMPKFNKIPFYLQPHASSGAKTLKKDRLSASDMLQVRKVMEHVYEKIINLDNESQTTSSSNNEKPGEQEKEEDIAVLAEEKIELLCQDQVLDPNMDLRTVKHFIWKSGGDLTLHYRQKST
row,Compound,IC50 [nM]
1,"CN1CCN(c2ncccc2-c2ncc3[nH]c(=O)n(Cc4ccc(-c5nc(C(F)(F)F)cn5C)cc4)c3n2)CC1 [Compound I-328, 9-(4-(1-methyl-4-(trifluoromethyl)-1H-imidazol-2-yl)benzyl)-2-(2-(4-methylpiperazin-1-yl)pyridin-3-yl)-7,9-dihydro-8H-purin-8-one]",200 to 2000
2,"Cn1cc(C(F)(F)F)nc1-c1ccc(Cn2c(=O)[nH]c3cnc(-c4cccnc4N4CCC(C(F)(F)F)CC4)nc32)cc1 [Compound I-329, 9-(4-(1-methyl-4-(trifluoromethyl)-1H-imidazol-2-yl)benzyl)-2-(2-(4-(trifluoromethyl)piperidin-1-yl)pyridin-3-yl)-7,9-dihydro-8H-purin-8-one]",< 50
3,"CC(C)N(C)c1ncccc1-c1ncc2[nH]c(=O)n(Cc3ccc(-c4nc(C(F)(F)F)cn4C)cc3)c2n1 [Compound I-330, 2-(2-(isopropyl(methyl)amino)pyridin-3-yl)-9-(4-(1-methyl-4-(trifluoromethyl)-1H-imidazol-2-yl)benzyl)-7,9-dihydro-8H-purin-8-one]",50 to 200
4,"CCN(C)c1ncccc1-c1ncc2[nH]c(=O)n(Cc3ccc(-c4nc(C(F)(F)F)cn4C)cc3)c2n1 [Compound I-331, 2-(2-(ethyl(methyl)amino)pyridin-3-yl)-9-(4-(1-methyl-4-(trifluoromethyl)-1H-imidazol-2-yl)benzyl)-7,9-dihydro-8H-purin-8-one]",< 50
5,"CN(CC(F)(F)F)c1ncccc1-c1ncc2[nH]c(=O)n(Cc3ccc(-c4nc(C(F)(F)F)cn4C)cc3)c2n1 [Compound I-332, 2-(2-(methyl(2,2,2-trifluoroethyl)amino)pyridin-3-yl)-9-(4-(1-methyl-4-(trifluoromethyl)-1H-imidazol-2-yl)benzyl)-7,9-dihydro-8H-purin-8-one]",< 50
6,"Cn1cc(C(F)(F)F)nc1-c1ccc(Cn2c(=O)[nH]c3cnc(-c4cccnc4N4CCOCC4)nc32)cc1 [Compound I-333, 9-(4-(1-methyl-4-(trifluoromethyl)-1H-imidazol-2-yl)benzyl)-2-(2-morpholinopyridin-3-yl)-7,9-dihydro-8H-purin-8-one]",50 to 200
7,"Cn1cc(C(F)(F)F)nc1-c1ccc(Cn2c(=O)[nH]c3cnc(-c4cccnc4N4CC(F)C4)nc32)cc1 [Compound I-334, 2-(2-(3-fluoroazetidin-1-yl)pyridin-3-yl)-9-(4-(1-methyl-4-(trifluoromethyl)-1H-imidazol-2-yl)benzyl)-7,9-dihydro-8H-purin-8-one]",< 50
8,"Cn1cc(C(F)(F)F)nc1-c1ccc(Cn2c(=O)[nH]c3cnc(-c4cccnc4N4CCC4)nc32)cc1 [Compound I-335, 2-(2-(azetidin-1-yl)pyridin-3-yl)-9-(4-(1-methyl-4-(trifluoromethyl)-1H-imidazol-2-yl)benzyl)-7,9-dihydro-8H-purin-8-one]",50 to 200
9,"Cn1cc(C(F)(F)F)nc1-c1ccc(Cn2c(=O)[nH]c3cnc(-c4cccnc4N4CC(F)(F)C4)nc32)cc1 [Compound I-336, 2-(2-(3,3-difluoroazetidin-1-yl)pyridin-3-yl)-9-(4-(1-methyl-4-(trifluoromethyl)-1H-imidazol-2-yl)benzyl)-7,9-dihydro-8H-purin-8-one]",< 50
10,"Cn1cc(C(F)(F)F)nc1-c1ccc(Cn2c(=O)[nH]c3cnc(-c4cccnc4N4CC(C(F)(F)F)C4)nc32)cc1 [Compound I-337, 9-(4-(1-methyl-4-(trifluoromethyl)-1H-imidazol-2-yl)benzyl)-2-(2-(3-(trifluoromethyl)azetidin-1-yl)pyridin-3-yl)-7,9-dihydro-8H-purin-8-one]",< 50
11,"CC(C)c1ccccc1-c1ncc2[nH]c(=O)n(Cc3ccc(-n4cc(C(C)(C)N)nn4)cc3)c2n1 [Compound I-338, 9-(4-(4-(2-aminopropan-2-yl)-1H-1,2,3-triazol-1-yl)benzyl)-2-(2-isopropylphenyl)-7,9-dihydro-8H-purin-8-one]",> 2000
12,"CC(C)c1ccccc1-c1ncc2[nH]c(=O)n(Cc3ccc(-n4cc(CN(C)C)nn4)cc3)c2n1 [Compound I-339, 9-(4-(4-((dimethylamino)methyl)-1H-1,2,3-triazol-1-yl)benzyl)-2-(2-isopropylphenyl)-7,9-dihydro-8H-purin-8-one]",> 2000
13,"CC(C)c1ccccc1-c1ncc2[nH]c(=O)n(Cc3ccc(-n4cc(-c5ccccc5)nn4)cc3)c2n1 [Compound I-340, 2-(2-isopropylphenyl)-9-(4-(4-phenyl-1H-1,2,3-triazol-1-yl)benzyl)-7,9-dihydro-8H-purin-8-one]",200 to 2000
14,"COc1ccc(-c2cn(-c3ccc(Cn4c(=O)[nH]c5cnc(-c6ccccc6C(C)C)nc54)cc3)nn2)cc1 [Compound I-341, 2-(2-isopropylphenyl)-9-(4-(4-(4-methoxyphenyl)-1H-1,2,3-triazol-1-yl)benzyl)-7,9-dihydro-8H-purin-8-one]",200 to 2000
15,"CC(C)c1ccccc1-c1ncc2[nH]c(=O)n(Cc3ccc(-n4cc(CCO)nn4)cc3)c2n1 [Compound I-342, 9-(4-(4-(2-hydroxyethyl)-1H-1,2,3-triazol-1-yl)benzyl)-2-(2-isopropylphenyl)-7,9-dihydro-8H-purin-8-one]",200 to 2000
16,"CC(C)c1ccccc1-c1ncc2[nH]c(=O)n(Cc3ccc(-n4cc(C5CC5)nn4)cc3)c2n1 [Compound I-343, 9-(4-(4-cyclopropyl-1H-1,2,3-triazol-1-yl)benzyl)-2-(2-isopropylphenyl)-7,9-dihydro-8H-purin-8-one]",50 to 200

row,Compound,IC50 [nM]
1,"COCc1cn(-c2ccc(Cn3c(=O)[nH]c4cnc(-c5ccccc5C(C)C)nc43)cc2)nn1 [Compound I-344, 2-(2-isopropylphenyl)-9-(4-(4-(methoxymethyl)-1H-1,2,3-triazol-1-yl)benzyl)-7,9-dihydro-8H-purin-8-one]",200 to 2000
2,"CC(C)c1ccccc1-c1ncc2[nH]c(=O)n(Cc3ccc(-n4cc(C(C)(C)O)nn4)cc3)c2n1 [Compound I-345, 9-(4-(4-(2-hydroxypropan-2-yl)-1H-1,2,3-triazol-1-yl)benzyl)-2-(2-isopropylphenyl)-7,9-dihydro-8H-purin-8-one]",200 to 2000
3,"CCN(CC)Cc1cn(-c2ccc(Cn3c(=O)[nH]c4cnc(-c5ccccc5C(C)C)nc43)cc2)nn1 [Compound I-346, 9-(4-(4-((diethylamino)methyl)-1H-1,2,3-triazol-1-yl)benzyl)-2-(2-isopropylphenyl)-7,9-dihydro-8H-purin-8-one]",> 2000
4,"CC(C)c1ccccc1-c1ncc2[nH]c(=O)n(Cc3ccc(-n4cc([C@@H](C)O)nn4)cc3)c2n1 [Compound I-347, (R)-9-(4-(4-(1-hydroxyethyl)-1H-1,2,3-triazol-1-yl)benzyl)-2-(2-isopropylphenyl)-7,9-dihydro-8H-purin-8-one]",> 2000
5,"CCC(N)(CC)c1cn(-c2ccc(Cn3c(=O)[nH]c4cnc(-c5ccccc5C(C)C)nc43)cc2)nn1 [Compound I-348, 9-(4-(4-(3-aminopentan-3-yl)-1H-1,2,3-triazol-1-yl)benzyl)-2-(2-isopropylphenyl)-7,9-dihydro-8H-purin-8-one]",> 2000
6,"CC(C)c1ccccc1-c1ncc2[nH]c(=O)n(Cc3ccc(-n4cc(-c5ccccn5)nn4)cc3)c2n1 [Compound I-349, 2-(2-isopropylphenyl)-9-(4-(4-(pyridin-2-yl)-1H-1,2,3-triazol-1-yl)benzyl)-7,9-dihydro-8H-purin-8-one]",200 to 2000
7,"CC(C)c1ccccc1-c1ncc2[nH]c(=O)n(Cc3ccc(-n4cc(CS(C)(=O)=O)nn4)cc3)c2n1 [Compound I-350, 2-(2-isopropylphenyl)-9-(4-(4-((methylsulfonyl)methyl)-1H-1,2,3-triazol-1-yl)benzyl)-7,9-dihydro-8H-purin-8-one]",> 2000
8,"CNC(=O)c1ccc(Cn2c(=O)[nH]c3cnc(-c4ccccc4C(C)C)nc32)cc1 [Compound I-351, 4-((2-(2-isopropylphenyl)-8-oxo-7,8-dihydro-9H-purin-9-yl)methyl)-N-methylbenzamide]",50 to 200
9,"COCCNC(=O)c1ccc(Cn2c(=O)[nH]c3cnc(-c4ccccc4C(C)C)nc32)cc1 [Compound I-352, 4-((2-(2-isopropylphenyl)-8-oxo-7,8-dihydro-9H-purin-9-yl)methyl)-N-(2-methoxyethyl)benzamide]",200 to 2000
10,"CC(C)c1ccccc1-c1ncc2[nH]c(=O)n(Cc3ccc(C(=O)NC4CC4)cc3)c2n1 [Compound I-353, N-cyclopropyl-4-((2-(2-isopropylphenyl)-8-oxo-7,8-dihydro-9H-purin-9-yl)methyl)benzamide]",50 to 200
11,"CC(C)c1ccccc1-c1ncc2[nH]c(=O)n(Cc3ccc(C(=O)NCc4ccc(F)cc4)cc3)c2n1 [Compound I-354, N-(4-fluorobenzyl)-4-((2-(2-isopropylphenyl)-8-oxo-7,8-dihydro-9H-purin-9-yl)methyl)benzamide]",50 to 200
12,"CC(C)c1ccccc1-c1ncc2[nH]c(=O)n(Cc3ccc(C(=O)N(C)C)cc3)c2n1 [Compound I-355, 4-((2-(2-isopropylphenyl)-8-oxo-7,8-dihydro-9H-purin-9-yl)methyl)-N,N-dimethylbenzamide]",< 50
13,"CC(C)NC(=O)c1ccc(Cn2c(=O)[nH]c3cnc(-c4ccccc4C(C)C)nc32)cc1 [Compound I-356, N-isopropyl-4-((2-(2-isopropylphenyl)-8-oxo-7,8-dihydro-9H-purin-9-yl)methyl)benzamide]",< 50
14,"CC(C)CNC(=O)c1ccc(Cn2c(=O)[nH]c3cnc(-c4ccccc4C(C)C)nc32)cc1 [Compound I-357, N-isobutyl-4-((2-(2-isopropylphenyl)-8-oxo-7,8-dihydro-9H-purin-9-yl)methyl)benzamide]",50 to 200
15,"CC(C)c1ccccc1-c1ncc2[nH]c(=O)n(Cc3ccc(C(=O)NC4CCCC4)cc3)c2n1 [Compound I-358, N-cyclopentyl-4-((2-(2-isopropylphenyl)-8-oxo-7,8-dihydro-9H-purin-9-yl)methyl)benzamide]",50 to 200
